# Measured values taken from publication PMC4279406, “Simultaneous targeting of PI3Kδ and a PI3Kδ-dependent MEK1/2-Erk1/2 pathway for therapy in pediatric B-cell acute lymphoblastic leukemia” (Oncotarget, 2014).
# How the values were obtained:
# Assay in all cases: KinaseProfiler protein kinase activity
# Format in all cases: biochemical
# Conditions in all cases: 10 μM X-370
# EGFR = molecular target: T1, EGFR (Homo sapiens, UniProt P00533)
# T1 construct: purchased Millipore KinaseProfiler
# Procedure: (§1) In vitro kinase profile assays were analyzed by the Kinase Profiler Service (Millipore, United Kingdom) following its guidelines. A GST-tagged human p110δ and regulatory full-length p85 were co-expressed in insect cell Sf9. Recombinant protein was extracted by affinity purification. The PI3K kinase activity was determined in the increasing concentration of ATP and X-370 with PI3-Kinase HTRF™ Assay kit (Millipore) as described previously. […]
# (§2) Table S1: Inhibitory activity of X-370 against protein kinases
# (§3) kinome at 10 μM. The relative kianse activity left in the presence of 10 μM were shown (Mi llipore
# (§4) Kinase activity (% of control) Kinase activity (% of control) Kinase activity (% of control)
# (§5) CDK1/cyclinB 97 Lck activated 89 Ret 125
# IRAK1 = molecular target: T2, IRAK1 (Homo sapiens, UniProt P51617)
# T2 construct: purchased Millipore KinaseProfiler
# Procedure: as §1, §2, §3, §4, §5
# mTOR/FKBP12 = molecular target: T3, mTOR/FKBP12 (Homo sapiens, UniProt P42345)
# T3 construct: purchased Millipore KinaseProfiler
# Procedure: as §1, §2, §3, §4, §5
# PKA = molecular target: T4, PKA (Homo sapiens, UniProt P17612)
# T4 construct: purchased Millipore KinaseProfiler
# Procedure: as §1, §2, §3, §4, §5
# CDK1/cyclinB = molecular target: T5, CDK1/cyclinB (Homo sapiens, UniProt P06493)
# T5 construct: purchased Millipore KinaseProfiler
# Procedure: as §1, §2, §3, §4, §5
# KDR = molecular target: T6, KDR (Homo sapiens, UniProt P35968)
# T6 construct: purchased Millipore KinaseProfiler
# Procedure: as §1, §2, §3, §4, §5
# TBK1 = molecular target: T7, TBK1 (Homo sapiens, UniProt Q9UHD2)
# T7 construct: purchased Millipore KinaseProfiler
# Procedure: as §1, §2, §3, §4, §5
# Plk1 = molecular target: T8, Plk1 (Homo sapiens, UniProt P53350)
# T8 construct: purchased Millipore KinaseProfiler
# Procedure: as §1, §2, §3, §4, §5
# IGF-1R, activated = molecular target: T9, IGF-1R, activated (Homo sapiens, UniProt P08069)
# T9 construct: purchased Millipore KinaseProfiler
# Procedure: as §1, §2, §3, §4, §5
# GSK3 α = molecular target: T10, GSK3 α (Homo sapiens, UniProt P49840)
# T10 construct: purchased Millipore KinaseProfiler
# Procedure: as §1, §2, §3, §4, §5
# SAPK2a(T106M) = molecular target: T11, SAPK2a(T106M) (Homo sapiens, UniProt Q16539, T106M)
# T11 construct: purchased Millipore KinaseProfiler
# Procedure: as §1, §2, §3, §4, §5
# PAK2 = molecular target: T12, PAK2 (Homo sapiens, UniProt Q13177)
# T12 construct: purchased Millipore KinaseProfiler
# Procedure: as §1, §2, §3, §4, §5
# CHK1 = molecular target: T13, CHK1 (Homo sapiens, UniProt O14757)
# T13 construct: purchased Millipore KinaseProfiler
# Procedure: as §1, §2, §3, §4, §5
# Axl = molecular target: T14, Axl (Homo sapiens, UniProt P30530)
# T14 construct: purchased Millipore KinaseProfiler
# Procedure: as §1, §2, §3, §4, §5
# PEK = molecular target: T15, PEK (Homo sapiens, UniProt Q9NZJ5)
# T15 construct: purchased Millipore KinaseProfiler
# Procedure: as §1, §2, §3, §4, §5
# Flt1 = molecular target: T16, Flt1 (Homo sapiens, UniProt P17948)
# T16 construct: purchased Millipore KinaseProfiler
# Procedure: as §1, §2, §3, §4, §5
# Tie2 = molecular target: T17, Tie2 (Homo sapiens, UniProt Q02763)
# T17 construct: purchased Millipore KinaseProfiler
# Procedure: as §1, §2, §3, §4, §5
# MARK1 = molecular target: T18, MARK1 (Homo sapiens, UniProt Q9P0L2)
# T18 construct: purchased Millipore KinaseProfiler
# Procedure: as §1, §2, §3, §4, §5
# Lck activated = molecular target: T19, Lck activated (Homo sapiens, UniProt P06239)
# T19 construct: purchased Millipore KinaseProfiler
# Procedure: as §1, §2, §3, §4, §5
# PKC α = molecular target: T20, PKC α (Homo sapiens, UniProt P17252)
# T20 construct: purchased Millipore KinaseProfiler
# Procedure: as §1, §2, §3, §4, §5
# MAPKAP-K2 = molecular target: T21, MAPKAP-K2 (Homo sapiens, UniProt P49137)
# T21 construct: purchased Millipore KinaseProfiler
# Procedure: as §1, §2, §3, §4, §5
# Ron = molecular target: T22, Ron (Homo sapiens, UniProt Q04912)
# T22 construct: purchased Millipore KinaseProfiler
# Procedure: as §1, §2, §3, §4, §5
# FAK = molecular target: T23, FAK (Homo sapiens, UniProt Q05397)
# T23 construct: purchased Millipore KinaseProfiler
# Procedure: as §1, §2, §3, §4, §5
# Src(1-530) = molecular target: T24, Src(1-530) (Homo sapiens, UniProt P12931)
# T24 construct: purchased Millipore KinaseProfiler
# Procedure: as §1, §2, §3, §4, §5
# TrkA = molecular target: T25, TrkA (Homo sapiens, UniProt P04629)
# T25 construct: purchased Millipore KinaseProfiler
# Procedure: as §1, §2, §3, §4, §5
# DYRK2 = molecular target: T26, DYRK2 (Homo sapiens, UniProt Q92630)
# T26 construct: purchased Millipore KinaseProfiler
# Procedure: as §1, §2, §3, §4, §5
# PKC μ = molecular target: T27, PKC μ (Homo sapiens, UniProt Q15139)
# T27 construct: purchased Millipore KinaseProfiler
# Procedure: as §1, §2, §3, §4, §5
# IKK α = molecular target: T28, IKK α (Homo sapiens, UniProt O15111)
# T28 construct: purchased Millipore KinaseProfiler
# Procedure: as §1, §2, §3, §4, §5
# JNK1 α1 = molecular target: T29, JNK1 α1 (Homo sapiens, UniProt P45983)
# T29 construct: purchased Millipore KinaseProfiler
# Procedure: as §1, §2, §3, §4, §5
# MAPK1 = molecular target: T30, MAPK1 (Homo sapiens, UniProt P27361)
# T30 construct: purchased Millipore KinaseProfiler
# Procedure: as §1, §2, §3, §4, §5
# ASK1 = molecular target: T31, ASK1 (Homo sapiens, UniProt Q99683)
# T31 construct: purchased Millipore KinaseProfiler
# Procedure: as §1, §2, §3, §4, §5
# Met = molecular target: T32, Met (Homo sapiens, UniProt P08581)
# T32 construct: purchased Millipore KinaseProfiler
# Procedure: as §1, §2, §3, §4, §5
# LKB1 = molecular target: T33, LKB1 (Homo sapiens, UniProt Q15831)
# T33 construct: purchased Millipore KinaseProfiler
# Procedure: as §1, §2, §3, §4, §5
# Itk = molecular target: T34, Itk (Homo sapiens, UniProt Q08881)
# T34 construct: purchased Millipore KinaseProfiler
# Procedure: as §1, §2, §3, §4, §5
# AMPK α1 = molecular target: T35, AMPK α1 (Homo sapiens, UniProt Q13131)
# T35 construct: purchased Millipore KinaseProfiler
# Procedure: as §1, §2, §3, §4, §5
# SGK = molecular target: T36, SGK (Homo sapiens, UniProt O00141)
# T36 construct: purchased Millipore KinaseProfiler
# Procedure: as §1, §2, §3, §4, §5
# JAK2 = molecular target: T37, JAK2 (Homo sapiens, UniProt O60674)
# T37 construct: purchased Millipore KinaseProfiler
# Procedure: as §1, §2, §3, §4, §5
# BTK = molecular target: T38, BTK (Homo sapiens, UniProt Q06187)
# T38 construct: purchased Millipore KinaseProfiler
# Procedure: as §1, §2, §3, §4, §5
# CaMKI = molecular target: T39, CaMKI (Homo sapiens, UniProt Q14012)
# T39 construct: purchased Millipore KinaseProfiler
# Procedure: as §1, §2, §3, §4, §5
# FGFR1 = molecular target: T40, FGFR1 (Homo sapiens, UniProt P11362)
# T40 construct: purchased Millipore KinaseProfiler
# Procedure: as §1, §2, §3, §4, §5
# T13 sequence (O14757 whole entry): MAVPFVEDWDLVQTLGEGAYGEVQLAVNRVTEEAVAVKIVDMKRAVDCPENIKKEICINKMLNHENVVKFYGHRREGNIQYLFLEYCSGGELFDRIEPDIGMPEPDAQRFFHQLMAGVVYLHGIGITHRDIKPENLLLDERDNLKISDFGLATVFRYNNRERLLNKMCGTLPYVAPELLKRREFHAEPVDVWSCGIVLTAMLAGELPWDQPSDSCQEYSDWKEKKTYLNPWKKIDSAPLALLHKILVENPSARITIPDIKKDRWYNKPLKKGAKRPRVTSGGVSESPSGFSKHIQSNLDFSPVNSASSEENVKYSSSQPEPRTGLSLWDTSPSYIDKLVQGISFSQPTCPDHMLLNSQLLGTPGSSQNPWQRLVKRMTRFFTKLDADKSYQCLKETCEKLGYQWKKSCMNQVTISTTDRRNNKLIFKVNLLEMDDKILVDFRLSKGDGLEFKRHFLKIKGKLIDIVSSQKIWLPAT
# T16 sequence (P17948 27-1338): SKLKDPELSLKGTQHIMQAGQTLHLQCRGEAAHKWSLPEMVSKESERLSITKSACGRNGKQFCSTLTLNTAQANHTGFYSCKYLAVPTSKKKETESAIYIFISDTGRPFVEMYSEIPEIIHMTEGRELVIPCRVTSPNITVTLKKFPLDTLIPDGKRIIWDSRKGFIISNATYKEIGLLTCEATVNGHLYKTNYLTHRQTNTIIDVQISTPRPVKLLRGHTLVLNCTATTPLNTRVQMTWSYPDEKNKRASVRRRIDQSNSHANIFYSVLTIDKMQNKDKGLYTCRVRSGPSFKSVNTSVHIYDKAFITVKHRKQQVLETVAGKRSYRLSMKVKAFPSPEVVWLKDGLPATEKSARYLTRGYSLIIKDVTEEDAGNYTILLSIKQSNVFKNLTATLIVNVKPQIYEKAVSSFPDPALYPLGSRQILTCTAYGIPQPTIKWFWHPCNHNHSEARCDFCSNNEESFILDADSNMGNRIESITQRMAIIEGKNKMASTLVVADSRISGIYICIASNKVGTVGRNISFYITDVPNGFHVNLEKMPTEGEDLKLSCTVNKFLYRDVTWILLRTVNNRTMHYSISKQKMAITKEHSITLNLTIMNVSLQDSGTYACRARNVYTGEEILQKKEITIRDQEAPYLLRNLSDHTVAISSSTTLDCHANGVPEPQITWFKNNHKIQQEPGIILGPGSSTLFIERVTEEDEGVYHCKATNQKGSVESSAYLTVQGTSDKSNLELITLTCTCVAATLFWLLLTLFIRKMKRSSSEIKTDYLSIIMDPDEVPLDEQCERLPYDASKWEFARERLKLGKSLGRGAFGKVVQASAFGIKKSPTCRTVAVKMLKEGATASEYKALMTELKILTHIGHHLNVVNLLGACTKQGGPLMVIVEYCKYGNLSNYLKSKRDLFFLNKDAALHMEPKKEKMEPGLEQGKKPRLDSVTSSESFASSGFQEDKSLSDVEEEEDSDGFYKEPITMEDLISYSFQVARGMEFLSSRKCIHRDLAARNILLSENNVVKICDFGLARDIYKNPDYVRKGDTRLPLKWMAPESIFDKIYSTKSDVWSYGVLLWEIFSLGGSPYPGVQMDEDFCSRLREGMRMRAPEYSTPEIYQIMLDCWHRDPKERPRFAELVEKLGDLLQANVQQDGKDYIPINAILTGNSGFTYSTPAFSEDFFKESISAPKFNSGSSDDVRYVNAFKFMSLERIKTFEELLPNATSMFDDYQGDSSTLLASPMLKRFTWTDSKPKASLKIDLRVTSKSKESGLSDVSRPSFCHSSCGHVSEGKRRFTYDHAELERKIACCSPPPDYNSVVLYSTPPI
# T18 sequence (Q9P0L2 whole entry): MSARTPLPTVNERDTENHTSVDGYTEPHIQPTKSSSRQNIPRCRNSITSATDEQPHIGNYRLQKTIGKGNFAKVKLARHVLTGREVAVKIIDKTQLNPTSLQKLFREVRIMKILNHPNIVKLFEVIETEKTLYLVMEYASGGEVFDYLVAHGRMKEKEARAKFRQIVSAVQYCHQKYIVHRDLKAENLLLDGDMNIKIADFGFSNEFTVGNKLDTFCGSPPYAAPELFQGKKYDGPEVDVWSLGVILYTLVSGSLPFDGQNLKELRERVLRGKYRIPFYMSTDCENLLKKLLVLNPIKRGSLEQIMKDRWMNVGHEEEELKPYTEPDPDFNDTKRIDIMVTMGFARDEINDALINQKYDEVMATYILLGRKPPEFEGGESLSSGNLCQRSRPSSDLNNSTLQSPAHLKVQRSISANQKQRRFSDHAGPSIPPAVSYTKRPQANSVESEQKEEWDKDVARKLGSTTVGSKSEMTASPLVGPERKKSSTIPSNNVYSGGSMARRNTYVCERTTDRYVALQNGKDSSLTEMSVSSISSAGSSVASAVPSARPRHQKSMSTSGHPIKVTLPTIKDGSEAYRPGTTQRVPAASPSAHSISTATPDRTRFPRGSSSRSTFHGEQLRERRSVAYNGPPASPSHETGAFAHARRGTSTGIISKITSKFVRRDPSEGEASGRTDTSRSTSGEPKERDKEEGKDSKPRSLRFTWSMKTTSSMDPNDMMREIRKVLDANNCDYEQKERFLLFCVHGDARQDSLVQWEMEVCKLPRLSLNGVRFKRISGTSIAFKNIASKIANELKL
# T25 sequence (P04629 33-796): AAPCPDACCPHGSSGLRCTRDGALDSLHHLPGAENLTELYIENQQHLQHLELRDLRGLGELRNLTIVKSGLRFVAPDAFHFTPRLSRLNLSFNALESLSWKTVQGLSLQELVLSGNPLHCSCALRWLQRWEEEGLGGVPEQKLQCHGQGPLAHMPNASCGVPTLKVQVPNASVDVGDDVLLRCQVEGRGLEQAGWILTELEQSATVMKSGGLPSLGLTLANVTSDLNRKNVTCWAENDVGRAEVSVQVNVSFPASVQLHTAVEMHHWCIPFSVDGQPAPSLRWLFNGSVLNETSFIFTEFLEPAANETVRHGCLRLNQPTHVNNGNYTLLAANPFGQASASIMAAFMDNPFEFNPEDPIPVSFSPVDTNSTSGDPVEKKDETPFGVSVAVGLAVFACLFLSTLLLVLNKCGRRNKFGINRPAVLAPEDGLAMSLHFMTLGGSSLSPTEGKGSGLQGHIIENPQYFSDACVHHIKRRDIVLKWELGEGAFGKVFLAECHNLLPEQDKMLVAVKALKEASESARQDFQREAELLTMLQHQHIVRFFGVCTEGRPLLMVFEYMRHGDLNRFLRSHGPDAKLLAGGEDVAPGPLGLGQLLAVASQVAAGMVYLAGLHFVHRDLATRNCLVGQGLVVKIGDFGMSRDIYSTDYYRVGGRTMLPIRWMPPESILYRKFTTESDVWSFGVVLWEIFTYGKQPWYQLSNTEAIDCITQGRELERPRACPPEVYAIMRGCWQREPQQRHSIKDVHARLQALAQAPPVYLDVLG
# T35 sequence (Q13131 whole entry): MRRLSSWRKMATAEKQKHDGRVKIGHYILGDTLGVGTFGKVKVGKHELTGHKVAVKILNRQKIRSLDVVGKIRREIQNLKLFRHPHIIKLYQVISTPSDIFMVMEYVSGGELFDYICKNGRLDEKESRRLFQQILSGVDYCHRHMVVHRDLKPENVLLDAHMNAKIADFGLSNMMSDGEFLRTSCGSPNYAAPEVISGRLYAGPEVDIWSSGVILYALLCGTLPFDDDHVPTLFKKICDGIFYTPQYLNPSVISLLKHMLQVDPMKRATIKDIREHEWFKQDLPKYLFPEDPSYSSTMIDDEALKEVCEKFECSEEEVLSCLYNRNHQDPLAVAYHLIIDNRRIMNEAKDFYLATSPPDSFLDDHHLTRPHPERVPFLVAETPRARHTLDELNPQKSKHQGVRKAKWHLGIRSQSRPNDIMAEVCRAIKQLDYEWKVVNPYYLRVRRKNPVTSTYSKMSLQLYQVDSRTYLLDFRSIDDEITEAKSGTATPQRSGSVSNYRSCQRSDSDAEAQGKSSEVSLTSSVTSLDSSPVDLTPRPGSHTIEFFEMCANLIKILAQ
# T35 sequence (Q9Y478 whole entry partner): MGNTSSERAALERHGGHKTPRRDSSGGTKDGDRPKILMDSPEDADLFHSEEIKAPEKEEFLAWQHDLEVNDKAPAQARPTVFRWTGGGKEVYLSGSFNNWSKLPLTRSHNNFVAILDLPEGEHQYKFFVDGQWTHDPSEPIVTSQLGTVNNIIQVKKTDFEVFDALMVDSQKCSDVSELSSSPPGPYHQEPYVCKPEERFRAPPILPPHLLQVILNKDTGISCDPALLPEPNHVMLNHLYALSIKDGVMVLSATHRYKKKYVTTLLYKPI
# T35 sequence (P54619 whole entry partner): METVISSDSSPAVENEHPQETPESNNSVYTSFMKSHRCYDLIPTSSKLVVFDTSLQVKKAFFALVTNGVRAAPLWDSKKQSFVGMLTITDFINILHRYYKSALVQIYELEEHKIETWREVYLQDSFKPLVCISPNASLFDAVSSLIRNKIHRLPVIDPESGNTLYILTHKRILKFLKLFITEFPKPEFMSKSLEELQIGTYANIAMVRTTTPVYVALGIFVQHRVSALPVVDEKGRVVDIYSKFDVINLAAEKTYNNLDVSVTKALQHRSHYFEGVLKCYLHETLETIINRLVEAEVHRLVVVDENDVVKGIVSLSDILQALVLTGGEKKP
# T36 sequence (O00141 whole entry): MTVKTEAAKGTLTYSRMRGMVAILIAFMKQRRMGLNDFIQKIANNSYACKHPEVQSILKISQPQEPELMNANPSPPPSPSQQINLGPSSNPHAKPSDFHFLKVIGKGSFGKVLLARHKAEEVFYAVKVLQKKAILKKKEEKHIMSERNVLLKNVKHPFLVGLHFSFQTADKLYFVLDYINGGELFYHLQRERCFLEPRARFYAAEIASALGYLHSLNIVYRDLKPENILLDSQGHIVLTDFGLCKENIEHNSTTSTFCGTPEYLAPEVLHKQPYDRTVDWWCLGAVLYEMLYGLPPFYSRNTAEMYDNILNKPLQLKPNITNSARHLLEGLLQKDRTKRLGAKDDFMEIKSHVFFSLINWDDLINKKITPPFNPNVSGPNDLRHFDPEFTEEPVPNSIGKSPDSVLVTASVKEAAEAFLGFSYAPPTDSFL
compound,measurement,setting,value
O=C(N1CCCC1)N1CCC(n2cnc3c(-n4c(C(F)F)nc5ccccc54)nc(N4CCOCC4)nc32)CC1 [X-370],Kinase activity (% of control),EGFR,90 % of control
same,Kinase activity (% of control),IRAK1,106 % of control
same,Kinase activity (% of control),mTOR/FKBP12,48 % of control
same,Kinase activity (% of control),PKA,106 % of control
same,Kinase activity (% of control),CDK1/cyclinB,97 % of control
same,Kinase activity (% of control),KDR,90 % of control
same,Kinase activity (% of control),TBK1,93 % of control
same,Kinase activity (% of control),Plk1,100 % of control
same,Kinase activity (% of control),"IGF-1R, activated",120 % of control
same,Kinase activity (% of control),GSK3 α,94 % of control
same,Kinase activity (% of control),SAPK2a(T106M),102 % of control
same,Kinase activity (% of control),PAK2,100 % of control
same,Kinase activity (% of control),CHK1,74 % of control
same,Kinase activity (% of control),Axl,106 % of control
same,Kinase activity (% of control),PEK,105 % of control
same,Kinase activity (% of control),Flt1,99 % of control
same,Kinase activity (% of control),Tie2,88 % of control
same,Kinase activity (% of control),MARK1,89 % of control
same,Kinase activity (% of control),Lck activated,89 % of control
same,Kinase activity (% of control),PKC α,96 % of control
same,Kinase activity (% of control),MAPKAP-K2,95 % of control
same,Kinase activity (% of control),Ron,111 % of control
same,Kinase activity (% of control),FAK,99 % of control
same,Kinase activity (% of control),Src(1-530),99 % of control
same,Kinase activity (% of control),TrkA,101 % of control
same,Kinase activity (% of control),DYRK2,102 % of control
same,Kinase activity (% of control),PKC μ,98 % of control
same,Kinase activity (% of control),IKK α,95 % of control
same,Kinase activity (% of control),JNK1 α1,90 % of control
same,Kinase activity (% of control),MAPK1,81 % of control
same,Kinase activity (% of control),ASK1,107 % of control
same,Kinase activity (% of control),Met,113 % of control
same,Kinase activity (% of control),LKB1,66 % of control
same,Kinase activity (% of control),Itk,106 % of control
same,Kinase activity (% of control),AMPK α1,101 % of control
same,Kinase activity (% of control),SGK,72 % of control
same,Kinase activity (% of control),JAK2,109 % of control
same,Kinase activity (% of control),BTK,121 % of control
same,Kinase activity (% of control),CaMKI,117 % of control
same,Kinase activity (% of control),FGFR1,108 % of control
